Reference: PMC6801819, “Exogenous Iron Increases Fasciocidal Activity and Hepatocellular Toxicity of the Synthetic Endoperoxides OZ78 and MT04” (International Journal of Molecular Sciences, 2019)

Assays:
F. hepatica [1] = tested on: F. hepatica; design: method as in PMID 21316331; conditions: 50 µg/mL; cited from earlier work
[2] = tested on: complex II of the mitochondrial electron transport chain; test: High-resolution respirometry, succinate + rotenone (complex II); assay type: cell-based, human; conditions: AS 100 µM, OZ78 500 µM, MT04 500 µM, 24 h, permeabilized HepG2, vs control
Protocol: (§1) After incubation with different drugs for 24 h, HepG2 cells were trypsinized and resuspended in DMEM with 10% fetal calf serum (FCS) and then centrifuged for 5 min (180× g). Cells were resuspended in MiRo5 respiration buffer (110 mM sucrose, 0.5 mM ethylene glycol-bis(β-aminoethyl ether)-N,N,N′,N′-tetraacetic acid (EGTA), 3.0 mM MgCl2, 80 mM KCl, 60 mM K-lactobionate, 10 mM KH2PO4, 20 mM taurine, 20 mM Hepes, 1.0 g/L BSA, pH 7.1). Respiration rates were measured at 37 °C using a high-resolution oxygraph (Oxygraph-2k, Oroboros Instruments, Innsbruck, Austria). Respiration rates were calculated as the time derivative of oxygen concentration measured in the closed respirometer. The amplified signal was recorded in a computer with an online display of the calibrated oxygen concentration and oxygen flux (DatLab software for data acquisition and analysis; Oroboros Instruments). The mitochondrial complex activity was assessed by a standard titration protocol: first cells were permeabilized with digitonin (10 µg/1 million cells) for 5 min. Afterward, for complex I-dependent maximal respiration stimulation, substrates added were glutamate (10 mM) and malate (5 mM), which provide nicotinamide adenine dinucleotide (NADH) to the respiratory chain (complex I activation), followed by addition of ADP (2.5 mM) (state 3, maximal respiration). After a stable signal was reached and marked, rotenone (0.5 µM) was added to inhibit complex I, and then complex II-dependent respiration was stimulated by adding succinate (10 mM), which provides flavin adenine dinucleotide (FADH) to the respiratory chain (complex II activation, state 3). Afterward, complex III was inhibited by antimycin A (2.5 µM), and complex IV-dependent respiration was measured by adding ascorbate (2 mM) and N,N,N′,N′-tetramethyl-p-phenylendiamine (TMPD, 0.5 mM). We confirmed the integrity of the outer mitochondrial membrane by showing the absence of a stimulatory effect of exogenous cytochrome c (10 µM) on respiration. Respiration was expressed as oxygen consumption per 5 × 10^5 cells.

F. hepatica [3] = conditions: sheep naturally infected with F. hepatica; cited from earlier work
HepG2 cells [4] = test: Adenylate kinase leakage (membrane integrity test); assay type: cell-based, human; conditions: 24 h, HepG2; for increase in AK release as compared to DMSO control / membrane integrity: 500 µM alone (OZ78, MT04: up to 500 µM); for release of AK, increase as compared to DMSO: combined treatment with Fe2+, concentration not given
Protocol: (§2) Stock solutions of the drugs tested were prepared in DMSO 100% (v/v).
(§3) In viability assays, HepG2 cells were treated with 0.1% Triton-X or 0.1% DMSO for positive or negative control, respectively.
The assay was used according to the protocol supplied by the manufacturer.

[5] = Drug solutions in cell culture medium; assay type: physicochemical; conditions: from DMSO stock
Protocol: Stock solutions of the drugs tested were prepared in DMSO 100% (v/v). […] LC-MS measurements confirmed the stability of the compounds (data not shown). Treatments with AS, MT04, or OZ78 (100 or 500 µM) were performed either alone or in combination with 8% (v/v) hemin or FeCl2 solution for 24 h. The final iron concentration used was 122 µM (stock 1.5 mM) based on previous in vitro studies with F. hepatica.

HepG2 cells [6] = test: Cellular reactive oxygen species (DCF-DA); assay type: cell-based, human; conditions: 24 h, HepG2; for cellular ROS content: drug + Fe2+; for increase of cellular ROS content, factor: drug alone (100 or 500 µM), no exogenous iron
Protocol: Stock solutions of the drugs tested were prepared in DMSO 100% (v/v). […] LC-MS measurements confirmed the stability of the compounds (data not shown). Treatments with AS, MT04, or OZ78 (100 or 500 µM) were performed either alone or in combination with 8% (v/v) hemin or FeCl2 solution for 24 h. The final iron concentration used was 122 µM (stock 1.5 mM) based on previous in vitro studies with F. hepatica. Dichlorodihydrofluorescein diacetate (DCF-DA) dissolved in DMSO was used to assess cellular formation of reactive oxygen species (ROS). HepG2 cells were seeded in a black-wall 96 well plate with a clear bottom as described above. Briefly, 30 min before treatment started, DCF-DA was added to the cells at a final concentration of 25 µM. DCF-DA was removed completely before the drugs were added. ROS was measured after 90 min and 24 h of drug exposure using a Tecan M200 Infinite Pro (excitation 485 nm, emission 535 nm).

HepG2 cells [7] = test: Cellular ATP content (CellTiter-Glo); assay type: cell-based, human; conditions: 24 h, HepG2
Protocol: as §2, §3
To assess cellular ATP content, HepG2 cells were seeded in white-wall 96-well plates with a clear bottom (Nunc). One day after seeding, cells were treated with the respective drugs. […] Luminescence was measured using Tecan M200 Infinite Pro.

adult F. hepatica = test: In vitro/ex vivo adult worm viability assay; assay type: cell-based, Fasciola hepatica; conditions: for viability of adult F. hepatica (viability score): score 4 normal activity to 1 death; for viability of adult F. hepatica: 48 h
Protocol: The experiments were performed, as described previously. Adult F. hepatica were collected from bovine liver bile ducts obtained from the local slaughterhouse (Basel, Switzerland). After careful washing, a single adult worm was placed per well (6-well plate, Costar, MA, USA) containing 5.4 mL RPMI 1640 (Gibco, N.Y., USA), supplemented with 1% (v/v) antibiotics (50 µg/mL streptomycin and 50 U/mL penicillin), 1% (v/v) drug solution, […] Control worms were incubated in 1% (v/v) DMSO combined with iron or hemin. Experiments were conducted in triplicates and repeated once. Cultures were kept at 37 °C in an atmosphere of 5% CO2. The viabilities of treated and untreated worms were monitored at 0, 24, 48, and 72 h. Worms were examined by eye and/or using a dissecting microscope (20× lenses). The viability of adult flukes was scored using the following scale: 4: normal activity; movements were visible without a microscope, 3: reduced activities, 2: very weak activities detected only using microscopic magnification, and 1: death of worm (no movement observed for two min using a microscope).

[8] = tested on: complex I of the mitochondrial electron transport chain; test: High-resolution respirometry, glutamate/malate (complex I); assay type: cell-based, human; conditions: AS 100 µM, OZ78 500 µM, MT04 500 µM, 24 h, permeabilized HepG2, vs DMSO
Protocol: as §1

[9] = design: method as in PMID 15318224; conditions: cited from earlier work
[10] = 50 µg/mL drug + Fe2+ (iron), 24 h
[11] = 50 µg/mL drug + Fe2+ (iron), 72 h

Row | Structure (SMILES) | activity against the liver fluke F. hepatica (F. hepatica [1]) | inhibition of mitochondrial respiration, succinate + rotenone (complex II) [2] | increase in AK release as compared to DMSO control / membrane integrity (HepG2 cells [4]) | release of AK, increase as compared to DMSO (HepG2 cells [4]) | behaviour of drug solutions in medium [5] | cellular ROS content (HepG2 cells [6]) | decrease in cellular ATP content as compared to DMSO (HepG2 cells [7]; 100 µM + Fe2+ (iron)) | decrease in cellular ATP content as compared to DMSO (HepG2 cells [7]; 100 µM + hemin) [%] | decrease in cellular ATP content as compared to DMSO (HepG2 cells [7]; 100 µM alone) | decrease in cellular ATP content as compared to DMSO (HepG2 cells [7]; 500 µM + Fe2+ (iron)) | decrease in cellular ATP content as compared to DMSO (HepG2 cells [7]; 500 µM + hemin) | decrease in cellular ATP content as compared to DMSO (HepG2 cells [7]; 500 µM alone) | viability of adult F. hepatica (viability score) (adult F. hepatica; [10]) | viability of adult F. hepatica (viability score) (adult F. hepatica; [11]) | viability of adult F. hepatica (viability score) (adult F. hepatica; 50 µg/mL drug + hemin, 24 h) | viability of adult F. hepatica (viability score) (adult F. hepatica; 50 µg/mL drug + hemin, 72 h) | viability of adult F. hepatica (viability score) (adult F. hepatica; 50 µg/mL drug alone, 24 h) | viability of adult F. hepatica (viability score) (adult F. hepatica; 50 µg/mL drug alone, 72 h) | inhibition of maximal ADP-stimulated respiration rate, glutamate + malate (complex I) [8] | increase of cellular ROS content, factor (HepG2 cells [6]) | other results
1 | O=C(O)CC1CCC2(CC1)OOC1(OO2)C2CC3CC(C2)CC1C3 (stereo not shown) [MT04] | have activity | 61% | did not impair membrane integrity | 200% | tend to precipitate | not | 20% | 40 | not toxic | 65% | 65% | 20% | 2.2 | 1.6 | 2.5 | death of the worms | not affected | 1.6 | 53% |  | egg count reduction (F. hepatica [3]): 98.5%; worm burden reduction (F. hepatica [3]): 92%
2 | O=C(O)C[C@H]1CC[C@]2(CC1)OOC1(O2)C2CC3CC(C2)CC1C3 (stereo partly shown) [OZ78] | have activity | only numerically, but without reaching statistical significance | did not impair membrane integrity | did not | tend to precipitate | increased the cellular ROS content | not toxic | 12 | not toxic | not enhanced by the addition of iron or hemin | not enhanced by the addition of iron or hemin | 14% | 3 | 2 | 3 | 2 | no effect on worm vitality | 2 | did not significantly impair mitochondrial function | 5 | effect in sheep (F. hepatica [3]): no effect; viability of adult F. hepatica (adult F. hepatica; 50 µg/mL drug + Fe2+ (iron)): more efficient in impairing worm viability than OZ78 alone; viability of adult F. hepatica (adult F. hepatica; 50 µg/mL drug + hemin): more efficient in impairing worm viability than OZ78 alone; mutagenic potential [9]: no mutagenic potential
3 | C[C@H]1[C@H](OC(=O)CCC(=O)O)O[C@@H]2O[C@@]3(C)CC[C@H]4[C@H](C)CC[C@@H]1[C@@]24OO3 [AS, artesunate, reference compound] |  | 83% | 270% |  |  | increased the cellular ROS content | 93% | 95 | 55% | complete depletion in cellular ATP | complete depletion in cellular ATP | complete depletion in cellular ATP |  | death of the worms |  | death of the worms |  | death of the worms | 75% | 5 | membrane leakage (AK release) as compared to DMSO control (HepG2 cells [4]; 100 µM + Fe2+): 320%; increase in AK release as compared to DMSO control (HepG2 cells [4]; 100 µM alone): 190%
